Reference: publication PMC12728655, “Engineering an Artificial Myxopyronin Derivative with Enhanced Metabolic Stability via Mutasynthesis” (JACS Au, 2025)
Values after ≈ are worked out from the molar mass of the structure shown. Read-outs that look alike come from different tables or passages of the source.

Experiments:
[1] = Stability during large-scale production and isolation; conditions: large-scale production, also with exclusion of light
Source text: We initially attempted the large-scale production of furan analog 14.

[2] = stated as known, reference not given; cited from earlier work
[3] = tested on: E. coli ΔtolC; test: microbe, parasite or virus in culture; type: cell-based; conditions: Escherichia coli
[4] = tested on: wt-S. aureus Newman; type: cell-based; conditions: Staphylococcus aureus
[5] = tested on: Rif^R-S. aureus Newman; test: microbe, parasite or virus in culture; type: cell-based; conditions: Staphylococcus aureus
[6] = tested on: M^R -S. aureus N315; test: microbe, parasite or virus in culture; type: cell-based; conditions: Staphylococcus aureus
[7] = tested on: M^R/V^R-S. aureus Mu50; test: microbe, parasite or virus in culture; type: cell-based; conditions: Staphylococcus aureus
[8] = tested on: E. faecalis DSM-20478; type: cell-based; conditions: Enterococcus faecalis, DSM20478
[9] = tested on: wt-M. tuberculosis H37Rv; test: microbe, parasite or virus in culture; type: cell-based; conditions: Mycobacterium tuberculosis
[10] = in vitro; type: in vitro ADME; conditions: mouse, hepatocytes
Protocol: Metabolic stability in mouse hepatocytes
For the evaluation of combined phase I and phase II metabolic stability, the compound (1 μM) was incubated with 0.25 x 10^6 cells/mL of pooled mouse hepatocytes (Xenotech, Kansas City, USA). Cells were thawed in Leibovitz’s L-15 medium without phenol red (ThermoFisher Scientific, Waltham, USA). Briefly, cells were transferred into 50 mL of medium, followed by centrifugation at 55 g for 3 min. Supernatant was discarded and the cell count determined after gently resuspending the cell pellet in 1 mL of medium. Hepatocytes were diluted to 0.5 x 10^6 cells/mL and incubated at 37 °C, 700 rpm for 10 min, to achieve the desired final cell count after addition of an equal volume of test compounds in medium, leading to final test concentration of 1 µM at 1% DMSO. Samples were incubated at 37 °C, for 240 min, 700 rpm and the incubation was stopped after defined time points by precipitation of aliquots in 4 […]
methanol/acetonitrile). The metabolic stability of testosterone, verapamil, ketoconazole and 7-hydroxycoumarine were determined in parallel to confirm the enzymatic activity of mouse hepatocytes. Samples were stored on ice until the end of the incubation and precipitated protein was removed by centrif ugation (15 min, 4 °C, 4. 000 g). […]

[11] = in vitro; type: in vitro ADME; conditions: plasma
Protocol: Figure S6: Metabolic stability in human liver microsomes with CYP isozyme involvement. (A) Human microsomal metabolism of MXY A (1) and (B) for MXY (8) in presence of 10 µM CYP inhibitors for CYP3A4 (ketoconazole), CYP1A2 (fluvoxamine), CYP2C9 (sulfaphenazole) or CYP2D6 (quinidine). The remaining test compound compared to t=0 min is given. (C) Corresponding half-lives (t1/2s) and fold increase compared to t1/2 of the compound in absence of inhibitors. Values represent means ± standard deviation (SD) of at least 3 independent measurements. *Mean half-life in presence of DMSO represents only assays where direct comparison to CYP inhibitors was performed; Table 2 of the main text includes additional replicates.
(§1) To determine stability in plasma, the compound (1 µM) was incubated with pooled CD-1 mouse/human or Wistar rat plasma (Neo Biotech, Nanterre, France). Samples were taken by […]
(§2) 10% methanol/acetonitrile). The plasma stability of procain, propantheline and diltiazem were determined in parallel to confirm the enzymatic activity. Samples were stored on ice until the end of the incubation and precipitated protein was removed by centrifugation (15 min, 4 °C, 4,000 g, two centrifugation steps). Concentration of the remaining test compound at the different time points was analyzed by HPLC-MS/MS (Vanquish Flex coupled to a TSQ Altis Plus, Thermo Fisher, Dreieich, Germany). The plasma stability of procain, propantheline and diltiazem were determined in parallel to confirm the enzymatic activity. […]

[12] = in vitro; type: in vitro ADME; conditions: Wistar, rat, plasma
Protocol: as §1, §2

[13] = in vitro; type: in vitro ADME; conditions: plasma, pH 7.4
Protocol: Plasma protein binding was determined using the Rapid Equilibrium Dialysis (RED) system (Thermo Fisher Scientific, Waltham MA, USA). Compounds were diluted to 10 µM in 50% murine (CD-1), human or Wistar rat plasma (Neo Biotech, Nanterre, France) in PBS pH 7.4 and added to the respective chamber according to the manufacturer’s protocol, followed by addition of PBS pH 7.4 to the opposite chamber. Samples were taken immediately after addition to the plate as well as after 2, 4 and 5 h by mixing 10 µL with 80 µL ice-cold ice-cold […]
(1 picture or pasted object on this page, not shown here) […]
(§3) by addition of 10 µL plasma to samples taken from PBS and vice versa. Samples were stored on ice until the end of the incubation and precipitated protein was removed by centrifugation (15 min, 4 °C, 4,000 g, 2 centrifugation steps). Concentration of the remaining test compound at the different time points was analyzed by HPLC-MS/MS (Vanquish Flex coupled to a TSQ Altis Plus, Thermo Fisher, Dreieich, Germany). […]
Germany). To obtain percent viability for each sample, their ODs were related to those of DMSO controls. At least three independent measurements were performed for each compound. The calculation of CC50 was performed using the nonlinear regression function of GraphPad Prism 10 (GraphPad Software, San Diego, CA, USA).

[14] = Cytotoxicity assay (MTT); type: cell-based; conditions: human, HepG2 cells, HepG2, 100 μM
Protocol: as §3, with “Germany). The amount of compound bound to protein was calculated using the equation PPB [%] = 100 – 100 x (amount in buffer chamber/amount in” for “Germany).”
To obtain information regarding the toxicity of test compounds, their impact on the viability of human cells was investigated. HepG2 cells (2x10^4 cells per well) were seeded in 96-well, flat-bottomed culture plates in 100 µL culture medium (DMEM containing 10% fetal calve serum, 1% penicillin-streptomycin). Twenty-four hours after seeding the cells, medium was removed and replaced by medium containing test compounds in a final DMSO concentration of 1%.
Compounds were tested in duplicates at a single concentration or, for CC 50 determination, at 8 concentrations that were prepared via 2-fold serial dilutions in 1% DMSO/medium. Epirubicin and doxorubicin were used as positive controls in serial dilutions starting from 10 µM, and rifampicin was used as a negative control (at 100 µM). […]

[15] = Wistar, rat, microsomes, 2 h, 1 µM
[16] = in vitro; conditions: C57BL/6, mouse, microsomes
[17] = in vitro; conditions: human, microsomes, Liver microsomes Clint
[18] = in vitro; conditions: Wistar, rat, microsomes
[19] = Metabolic stability in liver microsomes; conditions: C57BL/6, mouse
[20] = Metabolic stability in liver microsomes; conditions: human
[21] = Metabolic stability in liver microsomes; conditions: Wistar, rat
[22] = human, 1 µM

SMILES	MIC [3] [µg/mL]	MIC [5] [µg/mL]	MIC [9] [µg/mL]	MIC ([4]; NEWMAN) [µg/mL]	MIC [6] [µg/mL]	MIC [7] [µg/mL]	MIC [8] [µg/mL]	half-life at 1 µM [10] [h]	hepatocyte CLint at 1 µM [10] [µL/min/1e6 cells]	half-life at 1 µM ([11]; CD-1, mouse) [h]	half-life at 1 µM ([11]; human) [h]	half-life at 1 µM [12] [h]	fraction unbound at 10 µM ([13]; CD-1, mouse)	fraction unbound at 10 µM ([13]; Wistar, rat)	fraction unbound at 10 µM ([13]; human)	viability at 48 h, 100 µM [14] [%]	Remaining amount of parent compound at 120 min [15] [%]	microsomal CLint at 1 µM [16] [µL/min/mg]	microsomal CLint at 1 µM [17] [µL/min/mg]	microsomal CLint at 1 µM [18] [µL/min/mg]	further results
COC(=O)N/C=C/CC[C@@H](C)c1cc(O)c(C(=O)/C(C)=C/C=C(\C)c2ccoc2)c(=O)o1 [compound 14]																					decomposition during fermentation and isolation [1]: highly susceptible to rapid decomposition
CCCC/C(C)=C/C=C(\C)C(=O)c1c(O)cc([C@H](C)CC/C=C/NC(=O)OC)oc1=O [MYX B (2)]																					half-life in human liver microsomes [2]: 3 min
CO[C@H]1/C=C/O[C@@]2(C)Oc3c(C)c(O)c4c(O)c(c(/C=N/N5CCN(C)CC5)c(O)c4c3C2=O)NC(=O)/C(C)=C\C=C\[C@H](C)[C@H](O)[C@@H](C)[C@@H](O)[C@@H](C)[C@H](OC(C)=O)[C@@H]1C [rifampin]	16 (≈ 19.4 µM)	> 64	0.03 (≈ 0.0365 µM)																		MIC ([4]; wt-S. aureus Newman, read-out: MIC): 0.005 µg/mL (≈ 0.00608 µM); MIC ([6]; methicillin-resistant S. aureus N315, read-out: MIC): 0.0025 µg/mL (≈ 0.00304 µM); MIC ([7]; methicillin- and vancomycin-resistant S. aureus Mu50, read-out: MIC): > 64 µg/mL; MIC ([8]; E. faecalis DSM-20478, read-out: MIC): 1 µg/mL (≈ 1.22 µM)
COC(=O)N/C=C/CC[C@@H](C)c1cc(O)c(C(=O)/C(C)=C/C=C(\C)CCC(F)(F)F)c(=O)o1 [MYX (8)]	4 (≈ 8.48 µM)	2 (≈ 4.24 µM)	2 (≈ 4.24 µM)	2 (≈ 4.24 µM)	2 to 4 (≈ 4.24 to 8.48 µM)	1 to 2 (≈ 2.12 to 4.24 µM)	> 64	> 4	< 3.8	> 4	> 4	> 4	0.0036	0.0049	0.0162	44 ± 9	49 ± 13	21	28	~11.6	half-life at 1 µM [19]: 1.13 ± 0.117 h; half-life at 1 µM [20]: 0.867 ± 0.217 h; half-life at 1 µM [21]: ~2 h
CCC/C(C)=C/C=C(\C)C(=O)c1c(O)cc([C@H](C)CC/C=C/NC(=O)OC)oc1=O [MYX A (1), myxopyronins A]	1 to 2 (≈ 2.4 to 4.79 µM)	2 (≈ 4.79 µM)	4 (≈ 9.58 µM)	2 to 4 (≈ 4.79 to 9.58 µM)	4 (≈ 9.58 µM)	1 to 2 (≈ 2.4 to 4.79 µM)	> 64	> 4	< 3.8	> 4	> 4	> 4	0.0026	0.0054	0.0107	39 ± 6	51 ± 12	76	157	~11.6	Liver microsomes Clint [22]: 211 ± 37 µL/min/mg; half-life at 1 µM [19]: 0.317 ± 0.0667 h; half-life at 1 µM [20]: 0.122 ± 0.0417 h; half-life at 1 µM [21]: ~2 h
